The values that follow come from patent US20090143438A1, “Novel Pyridine Derivative Having Anti-Helicobacter Pylori Activity” (Arigen Pharmaceuticals, Inc., priority 2006, published 2009).

In brackets after ≈: the same amount, converted by molar mass. Read-outs that look alike come from different tables or passages of the source.

Assay [1] has as its system H. pylori clinical isolate PT#1045484. Nature of the assay: In vitro MIC test in Columbia agar, clinical isolate. The format is cell-based. Conditions: Helicobacter pylori, 72 h, 37° C., pH 7.0, 3 days. The method, then:
(§1) An in vitro test was performed in a Columbia agar medium using standard strains of H. pylori, NCTC 11637 and 11916, clinical isolates PT#1045482, PT#1045483 and PT#1045484, and ofloxacin- and roxithromycin-resistant, clinical isolates TY2, 4 and 5. Each of the test objects was dissolved in a 1% DMSO solution. Furthermore, as antibiotic control drugs, roxithromycin from the macrolide family and ofloxacin from the new quinolone family were used. The strains were cultured at 37° C. and pH 7.0 for 3 days, and on the 4th day, the minimum inhibitory concentrations (MIC, μg/ml) were determined.

Assay [2] concerns H. pylori clinical isolate PT#1045482. The description is as above. The format is cell-based. Particulars: Helicobacter pylori, 72 h, 37° C., pH 7.0, 3 days. Here is the method: as §1
For assay [3], the system named is H. pylori clinical isolate PT#1045483. The description is as above. Particulars: Helicobacter pylori, 72 h, 37° C., pH 7.0, 3 days. The format is cell-based. The method, then:
as §1

The subject of the next assay is H. pylori, ATCC 43504. In words: Antibacterial power test, Columbia agar, MIC. Particulars: 37° C., pH 7.0, 3 days, read on 4th day; for MIC: Helicobacter pylori, ATCC43504, 72 h, read-out: MIC, in vitro anti-Helicobacter pylori activity. The format is cell-based, Helicobacter pylori. Here is the method: An in vitro test was performed in a Columbia agar medium using a standard strain of H. pylori, ATCC 43504. […] Each of the test objects was dissolved in a 1% DMSO solution. Furthermore, as antibiotic control drugs, ampicillin from the penicillin family (control drug 1), gentamycin from the aminoglycoside family (control drug 2), tetracycline from the tetracycline family (control drug 3), and ofloxacin from the new quinolone family (control drug 4) were used.

Assay [4] concerns Mycobacterium ranae (ATCC 110). Nature of the assay: In vitro antibacterial test against various bacteria, MIC. Type of assay: cell-based. Conditions: 20 to 48 hours. The method, then:
(§2) An in vitro antibacterial test for the compounds of Examples 1 to 6 against various bacteria was performed. As gram-negative bacteria, Escherichia coli (ATCC 10536, ATCC 25922), Klebsiella pneumonia (ATCC 10031), Proteus vulgaris (ATCC 13315), Pseudomonas aeruginosa (ATCC 9027), Salmonella typhimurium (ATCC 13311), and as gram-positive bacteria, Staphylococcus aureus, MRSA (ATCC 33591), Staphylococcus epidermidis (ATCC 12228), Streptococcus pneumonia (ATCC 6301), Mycobacterium ranae (ATCC 110) and Enterococcus faecalis (VRE, ATCC 51575) were used. The various bacteria were cultured at 37° C. for 20 to 48 hours by conventional methods, and the minimum inhibitory concentrations (MIC, μg/ml) were determined. Each of the test objects were dissolved in a 1% DMSO solution. Furthermore, as an antibiotic control drug, gentamycin (GEM) from the aminoglycoside family was used.

The subject of assay [5] is Pseudomonas aeruginosa (ATCC 9027). Described as above. Particulars: 20 to 48 hours. Type of assay: cell-based. The method, then:
as §2

The subject of assay [6] is Streptococcus pneumonia (ATCC 6301). The assay is described as above. The format is cell-based. Particulars: Streptococcus pneumoniae, ATCC6301, 37° C., 20 to 48 hours. Here is the method: as §2
Assay [7] concerns Escherichia coli (ATCC 10536). The assay is described as above. The format is cell-based. Particulars: 20 to 48 hours. The method, then: as §2
For assay [8], the system named is Escherichia coli (ATCC 25922). The description is as above. Type of assay: cell-based. Particulars: 20 to 48 hours. The method, then:
as §2

Assay [9] deals with Staphylococcus epidermidis (ATCC 12228). Described as above. The format is cell-based. Particulars: 20 to 48 hours. Here is the method: as §2
Assay [10] relates to Salmonella typhimurium (ATCC 13311). Described as above. The format is cell-based. Particulars: 37° C., 20 to 48 hours. Here is the method: as §2
Assay [11] has as its system Enterococcus faecalis (VRE, ATCC 51575). The assay is described as above. Type of assay: cell-based. Conditions: 37° C., 20 to 48 hours. The method, then: as §2
The test system of assay [12] is Staphylococcus aureus, MRSA (ATCC 33591). The description is as above. Type of assay: cell-based. Conditions: 37° C., 20 to 48 hours. The method, then:
as §2

For assay [13], the system named is Proteus vulgaris (ATCC 13315). The assay is described as above. The format is cell-based. Particulars: 20 to 48 hours. Here is the method: as §2
The test system of assay [14] is Klebsiella pneumonia (ATCC 10031). The description is as above. Type of assay: cell-based. Conditions: 20 to 48 hours. The method, then: as §2
The test system of assay [15] is H. pylori ofloxacin- and roxithromycin-resistant clinical isolate TY4. Nature of the assay: In vitro MIC test in Columbia agar, resistant clinical isolate. The format is cell-based. Conditions: Helicobacter pylori, 72 h; resistant strain TY4; 37° C., pH 7.0, 3 days. The method, then: as §1
Assay [16] deals with H. pylori ofloxacin- and roxithromycin-resistant clinical isolate TY5. The assay is described as above. Type of assay: cell-based. Conditions: Helicobacter pylori, 72 h; resistant strain TY5; 37° C., pH 7.0, 3 days. The method, then:
as §1

Assay [17] has as its system H. pylori ofloxacin- and roxithromycin-resistant clinical isolate TY2. The description is as above. Type of assay: cell-based. Conditions: Helicobacter pylori, 72 h; resistant strain TY2; 37° C., pH 7.0, 3 days. The method, then: as §1
The next assay relates to H. pylori NCTC 11637. In words: In vitro MIC test in Columbia agar, standard strain. Type of assay: cell-based, Helicobacter pylori. Particulars: for MIC: Helicobacter pylori, NCTC11637, 72 h, standard strain NCTC 11637, 37° C., pH 7.0, 3 days. The method, then:
as §1

Another assay concerns H. pylori NCTC 11916. The description is as above. Particulars: for MIC: Helicobacter pylori, NCTC11916, 72 h, standard strain NCTC 11916, 37° C., pH 7.0, 3 days. The format is cell-based, Helicobacter pylori. The method, then: as §1
The subject of assay [18] is various gram-negative bacteria and gram-positive bacteria. In words: In vitro antibacterial test against various bacteria, overall statement. Type of assay: cell-based. Conditions: bacteria of Table 4. The method, then:
as §2

[19] abbreviates: ATCC9027, 37° C., read-out: MIC.
The mark [20] stands for this setting: ATCC10536, 37° C., read-out: MIC.
Where [21] appears, read: ATCC25922, 37° C., read-out: MIC.
Setting [22] is: ATCC12228, 37° C., read-out: MIC.
The mark [23] stands for this setting: Salmonella enterica, read-out: MIC.
Setting [24] is: ATCC13315, 37° C., read-out: MIC.
Setting [25] is: Klebsiella pneumoniae, ATCC10031, 37° C., read-out: MIC.

For the compound `Cc1c(OCCCCCCCO)ccnc1CSc1nc2ccccc2[nH]1` [Example 3, 2-[{4-(7-hydroxyheptyloxy)-3-methylpyridin-2-yl}methylthio]-1H-benzimidazole], the MIC – broadly, the least concentration at which growth counts as inhibited – in assay [1] is 0.1 µg/mL (≈ 0.259 µM); in [2], 0.1 µg/mL (≈ 0.259 µM); in assay [3], 0.1 µg/mL (≈ 0.259 µM); with H. pylori, ATCC 43504, 0.1 µg/mL (≈ 0.259 µM); in [4] (ATCC110, 37° C., read-out: MIC) it was over 100 µg/mL; in assay [5] (setting [19]) it was over 100 µg/mL. Also, the MIC in assay [6], in assay [7] (setting [20]), in [8] (setting [21]), in assay [9] (setting [22]), in [10] (setting [23]) and in [11] was over 100 µg/mL in each case. Moreover, the MIC is over 100 µg/mL in assay [12] (read-out: MIC); over 100 µg/mL in assay [13] (setting [24]); over 100 µg/mL in assay [14] (setting [25]); 0.1 µg/mL (≈ 0.259 µM) in [15]; 0.1 µg/mL (≈ 0.259 µM) in assay [16]; 0.1 µg/mL (≈ 0.259 µM) in [17]. For the same compound, the MIC against H. pylori NCTC 11637 and against H. pylori NCTC 11916 was 0.1 µg/mL (≈ 0.259 µM) each time.
As to `Cc1c(OCCCCCCCCO)ccnc1CSc1nc2ccccc2[nH]1` [Example 4, 2-[{4-(8-hydroxyoctyloxy)-3-methylpyridin-2-yl}methylthio]-1H-benzimidazole], the minimum inhibitory concentration (MIC) was 0.03 µg/mL (≈ 0.0751 µM) in assay [1]; 0.03 µg/mL (≈ 0.0751 µM) in assay [2]; 0.03 µg/mL (≈ 0.0751 µM) in [3]; 0.03 µg/mL (≈ 0.0751 µM) in the assay on H. pylori, ATCC 43504; over 100 µg/mL in [4] (ATCC110, 37° C., read-out: MIC); over 100 µg/mL in [5] (setting [19]). Besides, the MIC in assay [6], in assay [7] (setting [20]), in [8] (setting [21]), in [9] (setting [22]), in assay [10] (setting [23]) and in [11] was over 100 µg/mL throughout. Moreover, the MIC in [12] (read-out: MIC) was over 100 µg/mL; in [13] (setting [24]) it was over 100 µg/mL; in [14] (setting [25]), over 100 µg/mL; in [15], 0.1 µg/mL (≈ 0.25 µM); in assay [16] it was 0.03 µg/mL (≈ 0.0751 µM); in [17], 0.03 µg/mL (≈ 0.0751 µM). Further, the MIC in the assay on H. pylori NCTC 11637 and in the assay with H. pylori NCTC 11916 was 0.03 µg/mL (≈ 0.0751 µM) each time. In addition, the figures for the “activity compared to the compounds (e) and (f)” value with H. pylori NCTC 11637 (standard strain NCTC11637) and in the assay on H. pylori NCTC 11916 (standard strain NCTC11916) were 26.6 fold and 52 fold, respectively.
In the case of `Cc1c(OCCCCCCCCCO)ccnc1CSc1nc2ccccc2[nH]1` [Example 5, 2-[{4-(9-hydroxynonyloxy)-3-methylpyridin-2-yl}methylthio]-1H-benzimidazole], the MIC in [1] was 0.1 µg/mL (≈ 0.242 µM); in [2], 0.2 µg/mL (≈ 0.484 µM); in [3], 0.1 µg/mL (≈ 0.242 µM); in the assay on H. pylori, ATCC 43504 it was 0.1 µg/mL (≈ 0.242 µM); in assay [4] (ATCC110, 37° C., read-out: MIC), over 100 µg/mL; in [5] (setting [19]) it was over 100 µg/mL. Also, the MIC in [6], in assay [7] (setting [20]), in assay [8] (setting [21]), in [9] (setting [22]), in [10] (setting [23]) and in assay [11] was over 100 µg/mL throughout. Moreover, the MIC in assay [12] (read-out: MIC) was over 100 µg/mL; in assay [13] (setting [24]) it was over 100 µg/mL; in assay [14] (setting [25]), over 100 µg/mL; in assay [15] it was 0.3 µg/mL (≈ 0.725 µM); in [16], 0.2 µg/mL (≈ 0.484 µM); in assay [17], 0.1 µg/mL (≈ 0.242 µM). The minimal inhibitory concentration (MIC) in the assay with H. pylori NCTC 11637 and in the assay on H. pylori NCTC 11916 was 0.1 µg/mL (≈ 0.242 µM) each time.
In the case of `Cc1c(OCCCCCCCCCCO)ccnc1CSc1nc2ccccc2[nH]1` [Example 6, 2-[{4-(10-hydroxydecyloxy)-3-methylpyridin-2-yl}methylthio]-1H-benzimidazole], the MIC is 0.3 µg/mL (≈ 0.702 µM) in assay [1]; 0.3 µg/mL (≈ 0.702 µM) in assay [2]; 0.3 µg/mL (≈ 0.702 µM) in assay [3]; 0.3 µg/mL (≈ 0.702 µM) in the assay on H. pylori, ATCC 43504; over 100 µg/mL in assay [4] (ATCC110, 37° C., read-out: MIC); over 100 µg/mL in [5] (setting [19]). The MIC in assay [6], in assay [7] (setting [20]), in [8] (setting [21]), in [9] (setting [22]), in assay [10] (setting [23]) and in [11] was over 100 µg/mL each time. The MIC in assay [12] (read-out: MIC) was over 100 µg/mL; in [13] (setting [24]) it was over 100 µg/mL; in assay [14] (setting [25]) it was over 100 µg/mL; in assay [15], 0.3 µg/mL (≈ 0.702 µM); in assay [16], 0.3 µg/mL (≈ 0.702 µM); in assay [17], 0.3 µg/mL (≈ 0.702 µM). For the same compound, the MIC against H. pylori NCTC 11637 came to 0.3 µg/mL (≈ 0.702 µM); in the assay on H. pylori NCTC 11916, 0.2 µg/mL (≈ 0.468 µM).
In the case of “gentamycin [Control Drug 2 (Gentamycin), reference compound]”, the “antibacterial action against various gram-negative and gram-positive bacteria (in words)” value in assay [18] is given as “strong antibacterial action”. Also, the “MIC, in vitro anti-Helicobacter pylori activity” value against H. pylori, ATCC 43504 came out at 0.3 µg/mL. Further, the MIC in [4] (37° C.) turned out to be 0.3 µg/mL; in assay [5] (37° C.) it was 0.3 µg/mL; in assay [7] (37° C.), 0.3 µg/mL; in [8] (37° C.), 1.0 µg/mL; in [9] (37° C.), 0.1 µg/mL; in assay [10], 1.0 µg/mL. Besides, the MIC stood at 1.0 µg/mL in assay [12], 0.3 µg/mL in assay [13] (37° C.) and 1.0 µg/mL in assay [14] (37° C.).
